Legend:
Assay type in all cases: cell-based
LS174 cells [1] = assay: Caspase 3/7 activity (Caspase-Glo 3/7); settings: hypoxic cancer cells
Protocol: Quantification of the caspase 3/7 activity was done using a luciferin/luciferase based assay (Caspase-Glo 3/7 kit, Promega) according to the manufacture's instructions. Each condition was performed 8 times and the entire experiment was done 3 times. Significant differences are based on the Student's t test * p < 0.005. To test ABT-737 (Hickman et al., 2008, J Neurophysiol 99, 1515), LS 174 cells were cultured for 72 h in normoxia (N) or hypoxia 1% O2 (H 1 %) and ABT was then added for 24 h at different concentrations (0, 2 or 10 µM). Staurosporine (1 µg/ml) was added (+ Stau) 4 h prior to assay for caspase 3/7 activity, […]

LS174 cells [2] = assay: Immunofluorescence of cytochrome c release; settings: with staurosporine
Protocol: Cells were grown on glass coverslips and then fixed in 3.3% paraformaldehyde for 30 min at room temperature (RT), permeabilized with 0.2% Triton X-100 for 5 min. Cells were blocked with phosphate-buffered saline (PBS) containing 0.2% gelatin, 2% bovine serum albumin for 30 min at RT, and incubated with anti-rabbit HIF-1α (1/1000 - described in "Immunoblotting"), and/or anti-mouse cyto. c (1/500 - BD Bioscience) or anti-rabbit VDAC (1/400 - Abcam) antibodies in PBS for 3 h at RT. After washing, cells were incubated in the presence of a biotinylated anti-mouse secondary antibody conjugated to Alexa 594 (1:400) or anti-rabbit secondary antibody conjugated to Alexa 488 (1:400) for 1 h at RT (Invitrogen). After washing, coverslips were mounted in Cytifluor (Amersham Biosciences), detection of the fluorescence was performed with a Leica DMR fluorescence microscope, and images were recorded using RSImage software.

LS174 cells [3] = assay: Flow cytometric analysis of mitochondrial transmembrane potential (ΔΨm) with DiOC6(3); settings: staurosporine 1 µM for 18h
Protocol: The following fluorochromes were employed to determine mitochondrial function by cytofluorometry: 3,3'-dihexyloxacarbocyanine iodide [DiOC6(3), 50 nM (Invitrogen) for mitochondrial transmembrane potential (ΔΨm) quantification and propidium iodide (PI; 1 µg/ml (Sigma) for determination of cell viability (all from Molecular Probes). Cells were trypsinized and labeled with the fluorochromes at 37°C, followed by cytofluorometric analysis with a fluorescence-activated cell sorter (FACS) scan (Becton Dickinson). The fluorescence intensity of DiOC6 (3) (which measures ΔΨm) is plotted against the propidium iodide signal ([…]). The CellQuest software (Becton Dickinson) was used for the data analysis.

Row | Compound | induced apoptosis (LS174 cells [1]) | release of mitochondrial cytochrome c into the cytoplasm (LS174 cells [2]; hypoxic cells with enlarged mitochondria) | release of mitochondrial cytochrome c into the cytoplasm (LS174 cells [2]; normoxia) | ΔΨm (LS174 cells [3]; hypoxia 1 % O2 for 72h) | ΔΨm (LS174 cells [3]; normoxia)
1 | COc1cc([C@@H]2c3cc4c(cc3[C@@H](O[C@@H]3O[C@@H]5CO[C@@H](C)O[C@H]5[C@H](O)[C@H]3O)[C@H]3COC(=O)[C@H]23)OCO4)cc(OC)c1O [etoposide] | resistant | – | – | – | –
2 | CN[C@@H]1C[C@H]2O[C@@](C)([C@@H]1OC)n1c3ccccc3c3c4c(c5c6ccccc6n2c5c31)C(=O)NC4 [staurosporine] | resistant | do not show release of cyto. c | released mitochondrial cytochrome c (cyto. c) into the cytoplasm | remained unaffected | decreased
